In patent publication US12275694B2, “Pharmaceutically acceptable salts of [2-(3-fluoro-5-methane-sulfonylphenoxy)ethyl](propyl)amine and uses thereof” (INTEGRATIVE RESEARCH LABORATORIES SWEDEN AB, priority 2019, dated 2025):
Like-named read-outs stand apart in the source and are kept apart here.

Legend:
[1] = tested on: Parkinson's patients with L-dopa induced dyskinesia (LIDs); experiment: Human clinical study, 24-hour patient home diaries, good ON time; assay type: in vivo; conditions: 2.0 mg up to 10 mg such as 2.5, 5.0 or 7.5 mg, compared with an amount equal to or above 10 mg
From the text: Home diaries have gained wide acceptance as endpoints for clinical development of therapeutics aiming to reduce treatment-related motor complications. Motor fluctuations are associated with compromise in activities of daily living and health-related quality of life. In clinical trials performed by Integrative Research Laboratories Sweden AB patients record their 24-hours motor function in 30-minute intervals, beginning at midnight. For each 30-minute interval the patient rates the state he or she has been in for the past 30 minutes; OFF, ON without troublesome dyskinesia or ON with troublesome dyskinesia. The patient also denoted the time when he or she has been asleep.
In general, an “OFF” time reduction or “good ON-time” increase of 1 hour may be considered clinically significant and has been used as an assumption in power calculations in clinical trials. […]
A valid diary is defined as not having more than 2 hours of invalid data entries (4 invalid entries) over a given 24-hour period. An invalid diary entry is defined as more than one entry recorded in each half-hour interval, an unreadable entry, or the absence of an entry in each half-hour interval. […]

[2] = Hygroscopicity test, weighed samples kept at varied humidity at 30° C. for one week; assay type: physicochemical; conditions: for Hygroscopicity (in words): any tested relative humidity
Procedure: After one week, the samples were weighed again and based on the original weight the percentage weight difference was calculated.

[3] = Plasma concentration of the drug in the human clinical study; assay type: in vivo; conditions: 2 hours after administration in the morning, 2.5 mg b.i.d.-10 mg b.i.d., patients
[4] = Procedure: The temperature was 25° C. using step intervals of 10% between 0% and 95% RH in two consecutive cycles.

CCCNCCOc1cc(F)cc(S(C)(=O)=O)c1 [Example 2, [2-(3-fluoro-5-methanesulfonylphenoxy)ethyl](propyl)amine]
Good ON time (in words) [1]: increased the good ON time to a larger extent

CCCNCCOc1cc(F)cc(S(C)(=O)=O)c1 [Example 7, [2-(3-fluoro-5-methanesulfonylphenoxy)ethyl](propyl)amine hemi-L-tartrate]
Hygroscopicity (in words) [2]: very low hygroscopicity
Hygroscopicity (in words) ([2]; listed as L-tartaric acid salt): not hygroscopic at any relative humidities
Weight change ([2]; even at very high relative humidity such as 73%, 75%, 83% or 97% for 7 days at 30° C.): ≤ 0.3%
concentration at 2 h [3]: 50 to 200 nM

CCCNCCOc1cc(F)cc(S(C)(=O)=O)c1 [Formula IV]
Hygroscopicity (in words) [2]: not being hygroscopic
Weight change ([2]; at any humidity such as any relative humidity): ≤ 0.3 % by weight

CCCNCCOc1cc(F)cc(S(C)(=O)=O)c1.Cl [hydrochloric acid salt, hydrochloric acid salt of [2-(3-fluoro-5-methanesulfonylphenoxy)-ethyl](propyl)amine]
Weight gain ([4]; 95% relative humidity and 25° C., DVS): approximately 3%
Hygroscopicity (in words) ([4]; high relative humidities): hygroscopic at high relative humidities
